Reference: US20090197922A1, “COMPOSITIONS AND METHODS FOR TREATING PULMONARY HYPERTENSION” (The University of Chicago, priority 2006, published 2009)
“Also recorded” adds a separate entry of the source.

System: hypoxia-induced model of pulmonary hypertension in Dahl SS rats
Experiment: Hemodynamic study (pressures, RV/LV weights) in hypoxia/SU5416 model of pulmonary hypertension
Assay type: in vivo, rat
Settings: for development of pulmonary hypertension (right ventricular and pulmonary artery pressures, right ventricle/left ventricular weights): hypoxia 10% FiO2, 3 weeks, SU5416 20 mg/kg once, sorafenib by gavage daily
Description: As part of the spectrum of sorafenib's pharmacologic activity overlaps with SU5416, a study was performed to determine whether sorafenib had similar effects or with additional mechanisms of inhibitory activity could counteract the effects of SU5416. Dahl Salt Sensitive rats were divided into 5 groups: normoxia+vehicle (normal, healthy control), hypoxia+SU5416 (positive control), hypoxia+sorafenib (safety comparison with SU5416), and hypoxia+sorafenib+SU5416 (therapeutic activity assessment). Echocardiograms were performed on all rats at the start of the study. Except for the normoxia group, all rats were maintained in a hypoxia chamber with a partial pressure of oxygen of 10% FiO2 for the duration of the study. Rats in the two SU5416 groups received one subcutaneous injection of SU5416 at the start of the study (20 mg/kg). Stock sorafenib solutions were prepared every three days, crushing and dissolving sorafenib tablets in EL/ethanol (50:50; Sigma Cremophor EL, 95% ethyl alcohol) at final concentration of 4 mg/mL, protected from light exposure and stored at room temperature. Final dosing solutions were prepared on the day of use by dilution of the stock solution to 1 mg/mL with water and administered by gavage to the rats daily. […] Organ and blood specimens were obtained for further evaluation. […] RV 3DE measurements were also determined (diameters+area), A=RV major diameter, B=RV annulus diastolic diameter & area, C=RV at ⅓ RV major diameter & area, D=RV at ⅔ RV major diameter & area.
Protocol includes an initial administration of SU5416 subcutaneously at 20 mg/kg followed daily by sorenfenib oral daily doses of 2.5 mg/kg. Some animals were exposed to chronic hypoxia (10% O2). The animals were divided into five experimental groups: hypoxia+sorafenib; hypoxia+SU5416+sorafenib, normoxia+vehicle control; Hypoxia+vehicle; and hypoxia+SU5416. PAP, RVSP, Echo, and DNA microarrays were used to measure various physiological and molecular biological parameters. FIG. 4 illustrates that hypoxia/SU5416-induces increases in right heart pressures and right heart hypertrophy (RV/LV+Septum).
Fifteen Dahl Salt Sensitive strain rats were divided into 5 groups: normoxia+vehicle (normal, healthy control), hypoxia+vehicle (hypoxia control), hypoxia+SU5416 (positive control), hypoxia+sorafenib (safety comparison with SU5416), and hypoxia+sorafenib+SU5416 (therapeutic activity assessment). Echocardiograms were performed on all rats at the start of the experiment. Except for the normoxia group, all rats were maintained in a hypoxia chamber with a partial pressure of oxygen of 10% FiO2 for the duration of the experiment. Rats in the 2 SU5416 groups received one subcutaneous injection of SU5416 at the start of the experiment (20 mg/kg). Stock sorafenib solutions were prepared every three days, crushing and dissolving sorafenib tablets in EL/ethanol (50:50; Sigma Cremophor EL, 95% ethyl alcohol) at final concentration of 4 mg/mL, protected from light exposure and stored at room temperature. Final dosing solutions were prepared on the day of use by dilution of the stock solution to 1 mg/mL with water and administered by gavage to the rats daily. […] Organ and blood specimens were obtained for further evaluation.

[1] = 3½ Wk hypoxia (10% FiO2), sorafenib daily 2.5 mg/Kg, SU5416 day zero 20 mg/kg, 2 experiments as one cohort

CNC(=O)c1cc(Oc2ccc(NC(=O)Nc3ccc(Cl)c(C(F)(F)F)c3)cc2)ccn1 [Sorafenib]
BP mmHg (+/−) SE [1]: 97 +/− 4 mmHg | PA mmHg (+/−) SE [1]: 18 +/− 2 mmHg | RVSP mmHg (+/−) SE [1]: 17 +/− 2 mmHg | development of pulmonary hypertension (right ventricular and pulmonary artery pressures, right ventricle/left ventricular weights): attenuated physiologic and histopathologic changes in PAH; also recorded: protect SU5416-treated hypoxia-exposed rats from pulmonary arterial hypertension | development of pulmonary hypertension (right ventricular and pulmonary artery pressures, right ventricle/left ventricular weights) (listed as sorafenib): prevents hypoxia+SU5416 induced pulmonary hypertension and remodeling; also recorded: no significant change in pressures or weights; also recorded: does not exacerbate hypoxia-induced hypertension | development of pulmonary hypertension (right ventricular and pulmonary artery pressures, right ventricle/left ventricular weights) (listed as sorefenib): did not develop evidence of PAH | right heart hypertrophy (RV/LV+Septum) (hypoxia+SU5416, sorafenib oral daily 2.5 mg/kg): prevented hypoxia+SU5416 development of right heart hypertrophy
